Patent US4322348A, “Maytansinoids” (Takeda Chemical Industries, Ltd., priority 1979, dated 1982)
In brackets after ≈: the same amount, converted by molar mass.

Key:
solubility = type: physicochemical
Bacillus cereus = assay: growth inhibition, paper disc method, trypticase soy agar; type: cell-based; settings: 8 mm disc, 0.02 ml of a 300 μg/ml solution
Protocol: (§1) The growth inhibitory activity of the compounds against the test organisms is assayed by the paper disc method using a trypticase soy agar (manufactured by Baltimore Biologicals Laboratories, U.S.A.) as the assay medium. That is, the growth inhibitory activity is determined on the plate medium containing the following test organisms using a paper disc (manufactured by Toyo Seisakusho Co. Ltd., thin type, 8 mm in diameter) impregnated with 0.02 ml of a 300 μg/ml solution of C-15003PND-1, PND-2, PND-3 or PND-4.

Bacillus subtillis = assay: as above; type: cell-based; settings: 8 mm disc, 0.02 ml of a 300 μg/ml solution
Protocol: as §1

Escherichia coli = assay: as above; type: cell-based; settings: 8 mm disc, 0.02 ml of a 300 μg/ml solution
Protocol: as §1

Klebsiella pneumoniae = assay: as above; type: cell-based; settings: 8 mm disc, 0.02 ml of a 300 μg/ml solution
Protocol: as §1

Mycobacterium avium = assay: as above; type: cell-based; settings: 8 mm disc, 0.02 ml of a 300 μg/ml solution
Protocol: as §1

Proteus mirabilis = assay: as above; type: cell-based; settings: 8 mm disc, 0.02 ml of a 300 μg/ml solution
Protocol: as §1

Proteus vulgaris = assay: as above; type: cell-based; settings: 8 mm disc, 0.02 ml of a 300 μg/ml solution
Protocol: as §1

Pseudomonas aeruginosa = assay: as above; type: cell-based; settings: 8 mm disc, 0.02 ml of a 300 μg/ml solution
Protocol: as §1

Serratia marcescens = assay: as above; type: cell-based; settings: 8 mm disc, 0.02 ml of a 300 μg/ml solution
Protocol: as §1

Staphylococcus aureus = assay: as above; type: cell-based; settings: 8 mm disc, 0.02 ml of a 300 μg/ml solution
Protocol: as §1

[1] = system: Hamigera avellanea IFO 7721; assay: growth inhibition, paper disc method, agar plate; type: cell-based; settings: IFO7721, 8 mm disc, 0.02 ml of a 100 μg/ml solution, pH 7.0, read-out: inhibitory zones
Protocol: Also, the compounds are assayed by the paper disc method using an agar plate [3.5 g of disodiumhydrogen phosphate, 0.5 g of potassium dihydrogen phosphate, 5 g of yeast extract (manufactured by Difco Co.), 10 g of glucose, 15 g of agar, 1000 ml of distilled water, pH 7.0] as a medium for assay and Hamigera avellanea IFO 7721 as a test organism. Thus, the growth inhibitory activity is determined on the plate medium containing the test organism using a paper disc (Toyo Seisakusho Co. Japan, thin type, 8 mm in diameter) impregnated with 0.02 ml of a 100 μg/ml solution of C-15003PND-1, PND-2, PND-3 or PND-4. As a result, C-15003PND-1, PND-2, PND-3 and PND-4 show inhibitory zones of 28 mm, 30 mm, 34 mm and 36 mm, respectively.

Tetrahymena pyriformis W = assay: growth inhibition, liquid dilution method; type: cell-based; settings: 28° C., 44 to 48 hours, pH 7.0, read-out: concentration at which the growth of the test organism is inhibited
Protocol: Further, the growth inhibitory activity of these antibiotics is determined by the liquid dilution method using a medium [20 g of proteose peptone (Difco Co.), 1 g of yeast extract, 2 g of glucose, 1000 ml of distilled water, 10 ml of 1 M phosphate buffer pH 7.0] and Tetrahymena pyriformis W as a test organism with incubation at 28° C. for 44 to 48 hours. As a result, the growth of the above test organism is found to be inhibited at a concentration of 8 μg/ml of C-15003PND-1, 4 μg/ml of C-15003PND-2, 2 μg/ml of C-15003PND-3 and 1 μg/ml of C-15003PND-4.

[2] = system: tumor cells leukemia P388; assay: antitumor activity, therapeutic effect on leukemia P388 in mice; type: in vivo; settings: 1×10^6 cells/mouse i.p.; compound i.p. for 9 consecutive days
Protocol: The therapeutic effects of C-15003PND-1, PND-2, PND-3 and PND-4 on tumor cells leukemia P388 (1×10^6 cells/mouse, transplanted intraperitoneally) are determined by administering the compound intraperitoneally for 9 consecutive days.

[3] = acute toxicity test in mice; type: in vivo; settings: intraperitoneal
[4] = in petroleum ether, n-hexane, water
[5] = in chloroform, ethyl acetate, acetone, ethanol, methanol, pyridine, tetrahydrofuran, dimethyl sulfoxide

Row | SMILES | Solubility (solubility; in chloroform, ethyl acetate, acetone, ethanol, pyridine, tetrahydrofuran, dimethyl sulfoxide) | Solubility (solubility; [4]) | growth inhibitory activity (Bacillus cereus) | growth inhibitory activity (Bacillus subtillis) | growth inhibitory activity (Escherichia coli) | growth inhibitory activity (Klebsiella pneumoniae) | growth inhibitory activity (Mycobacterium avium) | growth inhibitory activity (Proteus mirabilis) | growth inhibitory activity (Proteus vulgaris) | growth inhibitory activity (Pseudomonas aeruginosa) | growth inhibitory activity (Serratia marcescens) | growth inhibitory activity (Staphylococcus aureus) | zone of inhibition at 100 µg/mL [1] [mm] | MIC (Tetrahymena pyriformis W) [µg/mL] | life-prolonging effect [2] | estimated LD0 [3] [mg/kg] | estimated LD100 [3] [mg/kg] | Solubility (solubility; [5])
1 | COc1cc2cc(c1Cl)NC(=O)CC(O)C1(C)OC1C(C)C1CC(O)(NC(=O)O1)C(OC)C=CC=C(C)C2 (stereo not shown) [C-15003PND-0] | Soluble | Insoluble | – | – | – | – | – | – | – | – | – | – | – | – | – | – | – | –
2 | COc1cc2cc(c1Cl)NC(=O)CC(OC(C)=O)C1(C)OC1C(C)C1CC(O)(NC(=O)O1)C(OC)C=CC=C(C)C2 (stereo not shown) [C-15003PND-1] | – | Insoluble | do not show any activity | do not show any activity | do not show any activity | do not show any activity | do not show any activity | do not show any activity | do not show any activity | do not show any activity | do not show any activity | do not show any activity | 28 | 8 (≈ 13.5 µM) | a life-prolonging effect | 0.313 | 2.5 | Soluble
3 | CCC(=O)OC1CC(=O)Nc2cc(cc(OC)c2Cl)CC(C)=CC=CC(OC)C2(O)CC(OC(=O)N2)C(C)C2OC12C (stereo not shown) [C-15003PND-2] | – | Insoluble | do not show any activity | do not show any activity | do not show any activity | do not show any activity | do not show any activity | do not show any activity | do not show any activity | do not show any activity | do not show any activity | do not show any activity | 30 | 4 (≈ 6.59 µM) | a life-prolonging effect | 0.313 | 2.5 | Soluble
4 | COc1cc2cc(c1Cl)NC(=O)CC(OC(=O)C(C)C)C1(C)OC1C(C)C1CC(O)(NC(=O)O1)C(OC)C=CC=C(C)C2 (stereo not shown) [C-15003PND-3] | – | Insoluble | do not show any activity | do not show any activity | do not show any activity | do not show any activity | do not show any activity | do not show any activity | do not show any activity | do not show any activity | do not show any activity | do not show any activity | 34 | 2 (≈ 3.22 µM) | a life-prolonging effect | 0.313 | 2.5 | Soluble
5 | COc1cc2cc(c1Cl)NC(=O)CC(OC(=O)CC(C)C)C1(C)OC1C(C)C1CC(O)(NC(=O)O1)C(OC)C=CC=C(C)C2 (stereo not shown) [C-15003PND-4] | – | Insoluble | do not show any activity | do not show any activity | do not show any activity | do not show any activity | do not show any activity | do not show any activity | do not show any activity | do not show any activity | do not show any activity | do not show any activity | 36 | 1 (≈ 1.57 µM) | a life-prolonging effect | 0.313 | 2.5 | Soluble
